Earlier results on two compounds are cited in patent publication US20060205727A1, “Combination therapy for endothelial dysfunction, angina and diabetes” (priority 2005, published 2006).

For series [1] the following is noted: in vivo.
Series [2] relates to plasma C-reactive protein. Particulars: acute myocardial infarction, streptokinase plus intravenous trimetazidine infusion.

Consider `COc1ccccc1OCC(O)CN1CCN(CC(=O)Nc2c(C)cccc2C)CC1` (centres unmarked) [Ranolazine, ranolazine], for which, in series [1], the QT interval prolongation result is “causes QT interval prolongation”.

Regarding `COc1ccc(CN2CCNCC2)c(OC)c1OC` [trimetazidine], the “levels of plasma C-reactive protein” value in series [2] is given as “reduce the levels of plasma C-reactive protein”.
